pIC50: −log10 of the molar value. Values joined by “and” are separate entries in the source; they are usually repeats but may differ in a detail not shown here. Equal entries are not always repeated.
Legend:
[1] = target: VEGFR-2 (Homo sapiens, UniProt P35968); assay: In vitro VEGFR-2 tyrosine kinase inhibitory assay (Z'-LYTE, SelectScreen); type: biochemical
Method: The target compounds were evaluated for their in vitro inhibitory activities against EGFR, VEGFR-2, and HDAC6. The EGFR and VEGFR-2 inhibitory assays were performed at Thermo Fischer Scientific, Madison, WI, USA (SelectScreenServices@thermofisher.com). The HDAC inhibitory assays were performed at BPS Bioscience, San Diego, CA, USA (www.bpsbioscience.com). Initially, all of the synthesised target compounds were evaluated for their percent inhibitory activity against EGFR, VEGFR-2, and HDACs at 10 µM single dose concentration, in which their mean percent inhibition is summarised in (Figure 5, Tables 1 and [2]). Representative compounds were evaluated for their percent inhibitory activity against EGFR and VEGFR-2 at 6 different concentrations (0.1 nM, 1 nM, 10 nM, 100 nM, 1 µM, 10 µM) to subsequently calculate their IC50 values (Table 3). Additionally, all of the synthesised target compounds were submitted to the National Cancer Institute “NCI” Bethesda, Maryland, USA (www.dtp.nci.nih.gov), to evaluate theirs in vitro antiproliferative activities against NCI 60- cancer cell line panel.
In vitro enzyme inhibition determination for the synthesised compounds was carried out in Thermo Fischer Scientific, Madison, WI, USA (SelectScreenServices@thermofisher.com). The EGFR and VEGFR-2 tyrosine kinase % inhibitory activity at a single-dose concentration of 10 µM was performed initially then representative compounds were evaluated at single-dose concentrations of (0.1 nM, 1 nM, 10 nM, 100 nM, 1 µM) using ZYLTE technology. A fluorescence-based, coupled-enzyme format is employed in the biochemical assay and depends on the sensitivity of proteolytic cleavage to non-phosphorylated and phosphorylated peptides. Then IC50 values for selected compounds were determined by GraphPad Prism at Misr international university.

[2] = tested on: UACC-257; assay: NCI one-dose screen; type: cell-based, human; conditions: Melanoma UACC-257, 10 µM single dose
Method in brief: (§1)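 One concentration (10 μM) applied to each line of the full NCI-60 panel; percent growth compared against untreated cells.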

[3] = tested on: TK-10; assay: NCI one-dose screen; type: cell-based, human; conditions: Renal TK-10, 10 µM single dose
Method in brief: as §1

[4] = tested on: NCI-H226; assay: NCI one-dose screen; type: cell-based, human; conditions: NSCLC NCI-H226, 10 µM single dose
Method in brief: (§2)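 Compounds were tested at a single dose of 10 μM across the full NCI-60 cell line panel. Growth was expressed as percent growth relative to untreated control cells, reported as percent inhibition.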

[5] = tested on: SK-OV-3; assay: NCI one-dose screen; type: cell-based, human; conditions: Ovarian SK-OV-3, 10 µM single dose
Method in brief: as §1

[6] = tested on: NCI-H322M; assay: NCI one-dose screen; type: cell-based, human; conditions: NSCLC NCI-H322M, 10 µM single dose
Method in brief: as §1

[7] = tested on: HT29; assay: NCI one-dose screen; type: cell-based, human; conditions: Colon HT29, 10 µM single dose
Method in brief: as §1

[8] = tested on: SW-620; assay: NCI one-dose screen; type: cell-based, human; conditions: Colon SW-620, 10 µM single dose
Method in brief: as §1

[9] = tested on: UO-31; assay: NCI one-dose screen; type: cell-based, human; conditions: for Growth Percent: Renal UO-31, 10 µM single dose
Method in brief: as §2

[10] = tested on: PC-3; assay: NCI one-dose screen; type: cell-based, human; conditions: Prostate PC-3, 10 µM single dose
Method in brief: as §1

[11] = tested on: HOP-62; assay: NCI one-dose screen; type: cell-based, human; conditions: NSCLC HOP-62, 10 µM single dose
Method in brief: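 Single 10 μM dose, NCI-60 panel; read-out = % growth vs untreated controls → % inhibition.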

Sequence of VEGFR-2 (P35968 20-1356): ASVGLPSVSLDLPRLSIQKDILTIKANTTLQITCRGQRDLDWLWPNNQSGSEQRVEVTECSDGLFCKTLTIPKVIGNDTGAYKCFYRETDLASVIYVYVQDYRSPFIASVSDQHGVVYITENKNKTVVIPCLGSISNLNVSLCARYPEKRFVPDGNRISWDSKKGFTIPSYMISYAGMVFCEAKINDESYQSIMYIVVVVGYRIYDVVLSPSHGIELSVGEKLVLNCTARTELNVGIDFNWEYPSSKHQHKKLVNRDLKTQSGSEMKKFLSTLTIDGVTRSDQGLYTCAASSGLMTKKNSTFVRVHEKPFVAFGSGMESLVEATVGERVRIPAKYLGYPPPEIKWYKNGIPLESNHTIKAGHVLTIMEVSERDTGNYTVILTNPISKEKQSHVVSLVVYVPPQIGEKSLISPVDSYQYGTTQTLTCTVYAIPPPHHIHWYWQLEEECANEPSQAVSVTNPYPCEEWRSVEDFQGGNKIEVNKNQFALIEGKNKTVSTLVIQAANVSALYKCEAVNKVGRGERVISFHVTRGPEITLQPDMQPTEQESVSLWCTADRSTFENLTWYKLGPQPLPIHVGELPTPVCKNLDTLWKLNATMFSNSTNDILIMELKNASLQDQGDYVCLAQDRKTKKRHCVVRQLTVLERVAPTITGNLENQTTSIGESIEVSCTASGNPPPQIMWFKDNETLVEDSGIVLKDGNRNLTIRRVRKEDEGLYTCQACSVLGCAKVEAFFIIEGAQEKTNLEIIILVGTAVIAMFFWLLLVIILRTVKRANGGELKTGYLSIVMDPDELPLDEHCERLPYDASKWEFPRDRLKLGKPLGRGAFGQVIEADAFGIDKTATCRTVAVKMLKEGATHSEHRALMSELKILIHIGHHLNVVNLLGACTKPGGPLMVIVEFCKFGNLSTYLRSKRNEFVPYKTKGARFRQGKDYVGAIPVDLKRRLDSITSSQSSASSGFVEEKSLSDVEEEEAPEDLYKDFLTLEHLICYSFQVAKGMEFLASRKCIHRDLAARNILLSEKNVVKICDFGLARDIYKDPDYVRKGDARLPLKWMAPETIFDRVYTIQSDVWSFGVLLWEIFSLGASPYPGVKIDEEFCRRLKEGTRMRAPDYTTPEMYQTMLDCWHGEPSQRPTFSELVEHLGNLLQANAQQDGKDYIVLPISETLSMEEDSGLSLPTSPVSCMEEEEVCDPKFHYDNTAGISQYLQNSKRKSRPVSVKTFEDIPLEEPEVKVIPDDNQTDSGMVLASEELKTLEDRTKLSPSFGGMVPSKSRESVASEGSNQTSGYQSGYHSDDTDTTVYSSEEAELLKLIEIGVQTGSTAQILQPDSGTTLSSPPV

SMILES	inhibition at 10 µM ([1]; 10 µM single dose) [%]	Growth Percent [2]	Growth Percent [3]	Growth Percent [4]	Growth Percent [5]	Growth Percent [6]	Growth Percent [7]	Growth Percent [8]	Growth Percent [9]	Growth Percent [10]	Growth Percent [11]	inhibition at 0.0001 µM ([1]; 0.1 nM compound, 10 μM ATP, read-out: % Inhibition mean, KDR (VEGFR2)) [%]	inhibition at 0.001 µM ([1]; 1 nM compound, 10 μM ATP, read-out: % Inhibition mean, KDR (VEGFR2)) [%]	inhibition at 0.01 µM ([1]; 10 nM compound, 10 μM ATP, read-out: % Inhibition mean, KDR (VEGFR2)) [%]	inhibition at 0.1 µM ([1]; 100 nM compound, 10 μM ATP, read-out: % Inhibition mean, KDR (VEGFR2)) [%]	inhibition at 1 µM ([1]; 1000 nM compound, 10 μM ATP, read-out: % Inhibition mean, KDR (VEGFR2)) [%]	Mean % inhibition VEGFR-2 ([1]; 10 µM single dose) [%]	pIC50 ([1]; read-out: IC50 in enzyme assays VEGFR-2)	inhibition at 10 µM ([9]; Homo sapiens, renal UO-31, 10 μM) [%]
Cc1c(C(=O)NO)sc2ncnc(Nc3ccc(NC(=O)Nc4ccccc4)cc3)c12 [Compound 7a, 1–(4-(6-(hydroxycarbamoyl)-5-methylthieno[2,3-d]pyrimidin-4-ylamino)phenyl)-3-phenylurea]	89	115.5% and 115.56%	108.5% and 108.59%	99.4% and 99.47%	122.7% and 122.74%	98.4% and 98.47%	94.7% and 94.78%	98.4% and 98.44%	74.6% and 74.65%	97.3% and 97.34%	102.6% and 102.62%								
COc1cccc(NC(=O)Nc2ccc(Nc3ncnc4sc(C(=O)NO)c(C)c34)cc2)c1 [Compound 7b, 1–(4-(6-(hydroxycarbamoyl)-5-methylthieno[2,3-d]pyrimidin-4-ylamino)phenyl)-3–(3-methoxyphenyl)urea]	78	100.8% and 100.87%	103.9% and 103.96%	94.5% and 94.51%	128.5% and 128.59%	103.7%	103.6% and 103.62%	101.2% and 101.24%	83.4% and 83.47%	101.6% and 101.65%	101.6% and 101.62%								
Cc1c(C(=O)NO)sc2ncnc(Nc3ccc(NC(=O)Nc4cccc(C(F)(F)F)c4)cc3)c12 [Compound 7c, 1–(4-(6-(hydroxycarbamoyl)-5-methylthieno[2,3-d]pyrimidin-4-ylamino)phenyl)-3–(3-(trifluoromethyl)phenyl)urea]	104	106.3% and 106.33%	116.24%	99.2% and 99.29%	113.0% and 113.07%	99.6% and 99.69%	97.2% and 97.28%	108.7% and 108.79%	75.7% and 75.79%	91.1% and 91.19%	93.7% and 93.71%	6	6	2	36	90	100	6.72	24.7
Cc1c(C(=O)NO)sc2ncnc(Nc3ccc(NC(=S)Nc4ccccc4)cc3)c12 [Compound 7d, 1–(4-(6-(hydroxycarbamoyl)-5-methylthieno[2,3-d]pyrimidin-4-ylamino)phenyl)-3-phenylthiourea]	45	99.4% and 99.45%	106.3% and 106.37%	103.8% and 103.88%	120.7% and 120.74%	107.3% and 107.32%	102.7% and 102.73%	104.8% and 104.86%	85.0% and 85.06%	105.6% and 105.68%	100.8% and 100.85%								
Cc1c(C(=O)NCCC(=O)NO)sc2ncnc(Nc3ccc(NC(=O)Nc4ccccc4)cc3)c12 [Compound 11a, 1–(4-(6-((3-(hydroxyamino)-3-oxopropyl)carbamoyl)-5-methylthieno[2,3-d]pyrimidin-4-ylamino)phenyl)-3-phenylurea]	47	101.0% and 101.08%	97.6% and 97.69%	90.4% and 90.42%	123.7% and 123.79%	101.2% and 101.26%	104.0% and 104.03%	103.0% and 103.02%	83.7% and 83.77%	101.7% and 101.73%	102.3% and 102.39%								
COc1cccc(NC(=O)Nc2ccc(Nc3ncnc4sc(C(=O)NCCC(=O)NO)c(C)c34)cc2)c1 [Compound 11b, 1–(4-(6-((3-(hydroxyamino)-3-oxopropyl)carbamoyl)-5-methylthieno[2,3-d]pyrimidin-4-ylamino)phenyl)-3–(3-methoxyphenyl)urea]	75	99.1% and 99.15%	109.9% and 109.96%	87.7% and 87.79%	123.7% and 123.78%	100.7% and 100.74%	104.4% and 104.43%	103.0% and 103.05%	83.4% and 83.44%	102.0% and 102.03%	103.2% and 103.23%								
Cc1c(C(=O)NCCC(=O)NO)sc2ncnc(Nc3ccc(NC(=O)Nc4cccc(C(F)(F)F)c4)cc3)c12 [Compound 11c, 1–(4-(6-((3-(hydroxyamino)-3-oxopropyl)carbamoyl)-5-methylthieno[2,3-d]pyrimidin-4-ylamino)phenyl)-3–(3-(trifluoromethyl)phenyl)urea]	91	108.3% and 108.33%	140.4% and 140.42%	97.9%	115.3% and 115.32%	103.7% and 103.74%	109.8% and 109.85%	104.3% and 104.35%	87.0% and 87.09%	100.2% and 100.24%	101.7%								
Cc1c(C(=O)NCCCC(=O)NO)sc2ncnc(Nc3ccc(NC(=O)Nc4ccccc4)cc3)c12 [Compound 12a, 1–(4-(6-((4-(hydroxyamino)-4-oxobutyl)carbamoyl)-5-methylthieno[2,3-d]pyrimidin-4-ylamino)phenyl)-3-phenylurea]	48	104.2% and 104.23%	111.3% and 111.37%	93.3% and 93.35%	121.6% and 121.69%	99.7% and 99.76%	104.7% and 104.74%	103.3% and 103.39%	75.3% and 75.33%	98.9% and 98.99%	100.0% and 100.08%								
COc1cccc(NC(=O)Nc2ccc(Nc3ncnc4sc(C(=O)NCCCC(=O)NO)c(C)c34)cc2)c1 [Compound 12b, 1–(4-(6-((4-(hydroxyamino)-4-oxobutyl)carbamoyl)-5-methylthieno[2,3-d]pyrimidin-4-ylamino)phenyl)-3–(3-methoxyphenyl)urea]	83	104.3% and 104.35%	107.7% and 107.72%	96.6% and 96.68%	114.7% and 114.77%	95.9% and 95.94%	95.3%	101.5% and 101.51%	82.0% and 82.06%	98.6% and 98.65%	100.4% and 100.49%								
